Values quoted from earlier work, collected in US6689588B1, “Garlic alliinase covalently bound to carrier for continuous production of allician” (Yeda Research and Development Co. Ltd., priority 1996, dated 2004).

Columns and labels:
[1] = Cavallito et al., 1944
bacteria, fungi, amebae = details: Cavallito et al., 1944; Barone and Tansey, 1977; Mirelman et al., 1987

Q: Which chemical stability [1] does the source give for `C=CCS[S+]([O-])CC=C` (centres unmarked) [allicin, thio-2-propene-1-sulfinic acid S-allyl ester] here?
A: chemically unstable

Q: And the antimicrobial activity (bacteria, fungi, amebae)?
A: antibacterial, antifungal and antiamebic activity
